The subject of test [1] is Incap. Put plainly: MTT cancer cell growth inhibition. It counts as cell-based. As to conditions: 72 h.
Test [2] addresses T1, HDAC7 (Homo sapiens, UniProt Q8WUI4).
T1 sequence (Q8WUI4 1-952): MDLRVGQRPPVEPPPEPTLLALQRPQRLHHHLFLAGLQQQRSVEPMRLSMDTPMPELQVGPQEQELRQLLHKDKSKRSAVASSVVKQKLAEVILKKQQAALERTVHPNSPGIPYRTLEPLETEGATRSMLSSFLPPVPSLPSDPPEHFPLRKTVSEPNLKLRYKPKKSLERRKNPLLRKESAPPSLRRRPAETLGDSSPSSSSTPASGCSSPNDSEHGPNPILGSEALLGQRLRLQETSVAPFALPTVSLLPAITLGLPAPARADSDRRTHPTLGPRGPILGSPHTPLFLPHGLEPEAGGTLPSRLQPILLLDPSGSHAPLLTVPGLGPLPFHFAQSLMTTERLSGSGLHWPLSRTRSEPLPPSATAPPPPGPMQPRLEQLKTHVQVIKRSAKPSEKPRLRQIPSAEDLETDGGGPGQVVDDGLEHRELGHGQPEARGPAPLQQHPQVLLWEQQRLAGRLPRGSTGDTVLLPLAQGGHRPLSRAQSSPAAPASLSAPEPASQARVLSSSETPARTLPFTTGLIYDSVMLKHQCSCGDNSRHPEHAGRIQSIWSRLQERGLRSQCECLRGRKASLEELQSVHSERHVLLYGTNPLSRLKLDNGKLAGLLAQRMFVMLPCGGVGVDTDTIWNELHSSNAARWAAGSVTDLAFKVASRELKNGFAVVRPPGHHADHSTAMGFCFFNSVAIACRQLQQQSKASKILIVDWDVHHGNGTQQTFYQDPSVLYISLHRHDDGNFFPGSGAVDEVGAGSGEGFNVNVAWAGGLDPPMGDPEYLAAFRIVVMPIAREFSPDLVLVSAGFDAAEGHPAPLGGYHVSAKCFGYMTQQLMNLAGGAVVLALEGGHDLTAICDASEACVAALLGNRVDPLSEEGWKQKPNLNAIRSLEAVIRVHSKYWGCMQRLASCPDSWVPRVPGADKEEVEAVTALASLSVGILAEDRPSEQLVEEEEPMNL
Put plainly: Measurement of biochemical activities of HDAC (fluorescently-labeled acetylated lysine substrate). A digest of the protocol: (§1)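 For both HDAC isoforms, fluorescent acetyl-lysine substrate ([…] in reaction) incubated with enzyme and compounds for 30 min at 37; developer then added for 15 min at room temperature. Fluorescence read at excitation 360 nm, emission 460 nm.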

The target in test [3] is HDAC1 (Homo sapiens, UniProt Q13547). The description is as above. The conditions noted are these: read-out: IC50 HDAC1. A digest of the protocol: as §1
Sequence of HDAC1 (Q13547 whole entry, species assumed): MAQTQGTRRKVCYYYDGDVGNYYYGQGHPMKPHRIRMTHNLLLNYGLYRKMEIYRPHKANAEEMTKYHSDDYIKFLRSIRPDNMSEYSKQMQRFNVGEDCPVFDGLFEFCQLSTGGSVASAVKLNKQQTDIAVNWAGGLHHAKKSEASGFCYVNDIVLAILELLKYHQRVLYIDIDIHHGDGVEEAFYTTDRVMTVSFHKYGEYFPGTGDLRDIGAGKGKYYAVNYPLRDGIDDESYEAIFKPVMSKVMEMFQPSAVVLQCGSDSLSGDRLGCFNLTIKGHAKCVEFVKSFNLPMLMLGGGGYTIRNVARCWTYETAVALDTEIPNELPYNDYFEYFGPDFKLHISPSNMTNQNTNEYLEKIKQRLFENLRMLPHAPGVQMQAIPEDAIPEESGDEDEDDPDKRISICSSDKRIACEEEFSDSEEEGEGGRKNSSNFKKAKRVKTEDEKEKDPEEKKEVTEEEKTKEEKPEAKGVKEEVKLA
In test [4] the test system is DU145 (human prostate cancer cells). Put plainly: MTT cancer cell growth inhibition. The format is cell-based. As to conditions: DU-145, 72 h. A digest of the protocol:
(§2)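 Following overnight seeding (1500 cells per well, medium with 10% FBS), cultures get triplicate compound doses of 10^−5–10^−10 M final for 72 h at 37 °C; 0.1% DMSO serves as negative control. MTT is then applied for 4 h, crystals dissolved in DMSO, and optical density at 570 nm converted to survival rate.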

For test [5], the system named is Hela (human cervical cancer cells). Briefly: MTT cancer cell growth inhibition. The format is cell-based. The conditions noted are these: 72 h. In short, it runs like this: as §2
Test [6] relates to MCF-7 (human breast cancer cells). Put plainly: MTT cancer cell growth inhibition. It counts as cell-based. As to conditions: MCF7, 72 h. In short, it runs like this:
as §2

Test [7] concerns MOLT-4 (human acute lymphoblastic leukemia cells). Briefly: MTT cancer cell growth inhibition. The format is cell-based. The conditions noted are these: 72 h. A digest of the protocol:
as §2

Test [8] concerns PANC-1. Briefly: MTT cancer cell growth inhibition. It counts as cell-based. As to conditions: Homo sapiens, 72 h. In short, it runs like this: as §2
In test [9] the test system is HT1080 (human fibrosarcoma cells). Briefly: MTT cancer cell growth inhibition. It counts as cell-based. The conditions noted are these: HT-1080, 72 h. In short, it runs like this: as §2
The subject of test [10] is A549 (human lung cancer cells). Briefly: MTT cancer cell growth inhibition. It counts as cell-based. The conditions noted are these: 72 h. In short, it runs like this:
as §2

Test [11] relates to U937 (human leukemia cells). Put plainly: MTT cancer cell growth inhibition. The format is cell-based. As to conditions: U-937, 72 h. A digest of the protocol:
as §2

In test [12] the test system is BGC-823 (human gastric cancer cells). Put plainly: MTT cancer cell growth inhibition. It counts as cell-based. The conditions noted are these: 72 h, read-out: GI50 BGC823. In short, it runs like this: as §2

By GI50 is commonly meant the concentration giving 50% growth inhibition. Usually IC50 stands for the concentration needed to halve the response being measured. With `C/C=C1\NC(=O)c2csc(n2)CNC(=O)C[C@@H](/C=C/CCSC(=O)CCCCCCC)OC(=O)[C@H](Cc2cccc3ccccc23)NC1=O` [Compound 1-9], the GI50 was 30 nM in test [1]; 3 nM in test [4]; 50 nM in test [5]; 50 nM in [6]; 10 nM in [7]; 600 nM in test [8]. The 50% growth inhibitory concentration (GI50) was 40 nM in test [9], 30 nM in [10], 5 nM in test [11] and 50 nM in test [12]. In test [2], the “IC50 HDAC7” value is “no activity”. In addition, in [3], the IC50 was below 10000 nM.
As for `C/C=C1\NC(=O)c2csc(n2)CNC(=O)C[C@@H](/C=C/CCSC(C)=O)OC(=O)[C@H](C(C)C)NC1=O` [Compound 6-2], the GI50 in test [1] came to 900 nM; in [4] it was 1600 nM; in test [5] it was 73500 nM; in test [6], 59600 nM; in [7], 400 nM; in test [8], 680 nM. For the same molecule, the concentration for 50% growth inhibition (GI50) amounted to 41000 nM in test [9], 15600 nM in test [10], 2650 nM in test [11] and 4600 nM in test [12]. Besides, the “IC50 HDAC7” value in [2] is given as “no activity”. In [3], the IC50 was below 10000 nM.

For the origin of these results see patent US8933195B2, “Histone deacetylase inhibitors and synthetic method thereof and use thereof in manufacture of medicaments” (Nanjing Yoko Biomedical R & D Ltd., priority 2011, dated 2015).
